Here are results for 25 compounds from patent publication US6608069B1, “Phenyl xanthine derivatives” (SmithKline Beecham Corporation, priority 1998, dated 2003).

Counter-ions that a name gives are not always drawn.

The test system of the first assay is cytokine-stimulated human umbilical vein endothelial cells. Kind of assay: Cell Adhesion Assay: adherence of fluorescently-labelled leukocytes to endothelial cell monolayers. Format: cell-based. To be noted: inhibition of cytokine-stimulated adhesion minus basal adhesion; calcein-AM labelled leukocytes on HUVEC monolayers. Here is the method: The antiadhesion activity of compounds of the invention was determined using a modification of the previously described method, Jurgensen, C. H. et. al., J. Immunol. 144: 653-661. The adhesiveness of cytokine-stimulated human umbilical vein endothelial cells was assessed by quantitating the adherence of fluorescently-labelled (calcein-AM, Molecular Probes, Eugene, Oreg.) leukocytes to endothelial cell monolayers. Activity was determined by calculating inhibition of cytokine-stimulated adhesion minus the basal adhesion (unstimulated).
As a reminder, the IC50 is the concentration at which inhibition is half-maximal. As to `COCCOCCOCCOCCOCCOCCOCCOCCOCCOC(=O)/C=C/c1ccc(-c2nc3c(=O)n(CC4CCCCC4)c(=O)n(C)c3[nH]2)cc1` [Example 56, (E)-4-((1-cyclohexylmethyl-3-methyl)-1,2,3,6-tetrahydro-2,6-dioxo-9H-purin-8-yl)cinnamic Acid Nonaethylene Glycol Methyl Ether Ester], the IC50 was 160 ± 70 nM. For the compound `O=C(/C=C/c1ccc(-c2nc3c(=O)n(CC4CCCCC4)c(=O)n(CC4CCCCC4)c3[nH]2)cc1)NCCOCCOCCOCCOCCOCCOCc1ccccc1` [Example 101, (E)-4-(1,3-Bis(cyclohexylmethyl)-1,2,3,6-tetrahydro-2,6-dioxo-9H-purin-8-yl)cinnamic Acid Hexaethylene Glycol Benzyl Ether Amide], the IC50 is 340 ± 94 nM. With `COCCOCCOCCOCCOCCOCCOCCOCCOCCNC(=O)c1ccc(-c2nc3c(c(=O)n(CC4CCCCC4)c(=O)n3CC3CCCCC3)n2Cc2ccccc2)cc1` [Example 93, 4-(1,3-Bis(cyclohexylmethyl)-2,3,6,7-tetrahydro-2,6-dioxo-7-benzyl-1H-purin-8-yl)benzoic Add Nonaethylene Glycol Methyl Ether Amide], the IC50 is 69 ± 97 nM.

For `CCCn1c(=O)c2nc(-c3cccc(/C=C/C(=O)OCCOCCOCCOCCOCCOCCOCCOCCOCCOC)c3)[nH]c2n(CCC)c1=O` [Example 60, (E)-3-(1,3-bis(propyl)-1,2,3,6-tetrahydro-2,6-dioxo-9H-purin-8-yl)cinnamic Acid Nonaethylene Glycol Methyl Ether Ester], the half-inhibitory concentration (IC50) is above 1000 nM. For the compound `COCCOCCOCCOCCOCCOCCOCCOCCOCCOC(=O)/C=C/c1ccc(-c2nc3c(=O)n(Cc4ccccc4F)c(=O)n(Cc4ccccc4F)c3[nH]2)cc1` [Example 54, (E)-4-(1,3-bis(2-fluorobenzyl)-1,2,3,6-tetrahydro-2,6-dioxo-9H-purin-8-yl)cinnamic Acid Nonaethylene Glycol Methyl Ether Ester], the IC50 was 76 ± 28 nM.

Take `COCCOCCOCCOCCOCCOCCOCCOCCOCCNC(=O)c1ccc(-c2nc3c(=O)n(CC4CCCCC4)c(=O)n(CC4CCCCC4)c3[nH]2)nc1` [Example 99, 6-(1,3-Bis(cyclohexylmethyl)-1,2,3,6-tetrahydro-2,6-dioxo-9H-purin-8-yl)nicotinic Acid Nonaethylene Glycol Methyl Ether Amide]: the IC50 is 77 ± 29 nM. Turning to `COCCOCCOCCOCCOCCOCCOCCOCCOCCOC(=O)/C=C/c1ccc(-c2nc3c(=O)n(C)c(=O)n(CC(C)C)c3[nH]2)cc1` [Example 63, (E)-4-(1-methyl-3-(2-methylpropyl)-1,2,3,6-tetrahydro-2,6-dioxo-9H-purin-8-yl)cinnamic Acid Nonaethylene Glycol Methyl Ether Ester], the IC50 was 55 ± 34 nM. Regarding `COCCOCCOCCOCCOCCOCCOCCOCCOCCOC(=O)/C=C/c1ccc(-c2nc3c(c(=O)n(CC4CCCCC4)c(=O)n3CC3CCCCC3)n2Cc2ccccc2)cc1` [Example 77, (E)-4-(1,3-Bis(cyclohexylmethyl)-2,3,6,7-tetrahydro-2,6-dioxo-7-benzyl-1H-purin-8-yl)cinnamic Acid Nonaethylene Glycol Methyl Ether Ester], the IC50 was 9.6 ± 5 nM. Regarding `COCCOCCOCCOCCOCCOCCOCCOCCOCCOC(=O)/C=C/c1ccc(-c2nc3c(=O)n(Cc4cccc(F)c4)c(=O)n(Cc4cccc(F)c4)c3[nH]2)cc1` [Example 53, (E)-4-(1,3-bis(3-fluorobenzyl)-1,2,3,6-tetrahydro-2,6-dioxo-9H-purin-8-yl)cinnamic Acid Nonaethylene Glycol Methyl Ether Ester], the 50% inhibitory concentration (IC50) was 39 ± 13 nM.

For `COCCOCCOCCOCCOCCOCCOCCOCCOCCOC(=O)/C=C/c1ccc(-c2nc3c(c(=O)n(CC4CCCCC4)c(=O)n3CC3CCCCC3)n2CC(C)=O)cc1` [Example 81, (E)-4-(1,3-Bis(cyclohexylmethyl)-2,3,6,7-tetrahydro-2,6-dioxo7-(2-oxo-2-methylethyl)-1H-purin-8-yl)cinnamic Acid Nonaethylene Glycol Methyl Ether Ester], the half-maximal inhibitory concentration (IC50) is 16 ± 18 nM.

As for `COCCOCCOCCOCCOCCOCCOCCOCCOCCOC(=O)/C=C/c1ccc(-c2nc3c(=O)n(CC4CCCCC4)c(=O)n(CC4CCCCC4)c3[nH]2)cc1` [Example 35, (E)-4-[1,3-Bis(cyclohexylmethyl)-1,2,3,6-tetrahydro-2,6-dioxo-9H-purin-8-yl)cinnamic Acid Nonaethylene Glycol Methyl Ether Ester], the IC50 is 29 ± 3 nM. On the same count and under the same terms, the same measure for `COCCOCCOCCOC(=O)/C=C/c1ccc(-c2nc3c(c(=O)n(CC4CCCCC4)c(=O)n3CC3CCCCC3)n2CCOCCOCCOC)cc1` [Example 97]: above 1000 nM. `CCn1c(-c2ccc(/C=C/C(=O)OCCOCCOCCOCCOCCOCCOCCOCCOCCOC)cc2)nc2c1c(=O)n(CC1CCCCC1)c(=O)n2CC1CCCCC1` [Example 83, (E)-4-(1,3-Bis(cyclohexylmethyl)-2,3,6,7-tetrahydro-2,6-dioxo-7-ethyl-1H-purin-8-yl)cinnamic Acid Nonaethylene Glycol Methyl Ether Ester]: the IC50 was 28 ± 12 nM. In the case of `COCCOCCOCCOCCOCCOCCOCCOCCOCCOC(=O)/C=C/c1ccc(-c2nc3c(=O)n(Cc4ccccc4)c(=S)n(Cc4ccccc4)c3[nH]2)cc1` [Example 50, (E)-4-(1,3-bis(benzyl)-1,2,3,6-tetrahydro-2-thioxo-6-oxo-9H-purin-8-yl)cinnamic Acid Nonaethylene Glycol Methyl Ether Ester], the IC50 is 270 ± 150 nM. For the compound `COCCOCCOCCOCCOCCOCCOCCOCCOCCNC(=O)c1ccc(-c2nc3c(c(=O)n(CC4CCCCC4)c(=O)n3CC3CCCCC3)n2C)cc1` [Example 94, 4-(1,3-Bis(cyclohexylmethyl)-2,3,6,7-tetrahydro-2,6-dioxo-7-methyl-1H-purin-8-yl)benzoic Acid Nonaethylene Glycol Methyl Ether Amide], the IC50 was 220 ± 87 nM. Consider `COCCOCCOCCOCCOCCOCCOCCOCCOCCOC(=O)c1ccc(-c2nc3c(c(=O)n(CC4CCCCC4)c(=O)n3CC3CCCCC3)n2Cc2ccccc2)cc1` [Example 88, 4-(1,3-Bis(cyclohexylmethyl)-2,3,6,7-tetrahydro-2,6-dioxo-7-benzyl-1H-purin-8-yl)benzoic Acid Nonaethylene Glycol Methyl Ether Ester], for which the IC50 was 49 ± 19 nM. Turning to `CCOC(=O)Cn1c(-c2ccc(/C=C/C(=O)OCCOCCOCCOCCOCCOCCOCCOCCOCCOC)cc2)nc2c1c(=O)n(CC1CCCCC1)c(=O)n2CC1CCCCC1` [Example 84, (E)-4-(1,3-Bis(cyclohexylmethyl)-2,3,6,7-tetrahydro-2,6-dioxo-7-(2-ethoxy-2-oxoethyl)-1H-purin-8-yl)cinnamic Acid Nonaethylene Glycol Methyl Ether Ester], the half-maximal inhibitory concentration (IC50) is 7 ± 4 nM.

For the compound `CCCn1c(=O)c2nc(-c3ccc(/C=C/C(=O)OCCOCCOCCOCCOCCOCCOCCOCCOCCOC)cc3)[nH]c2n(CCC)c1=O` [Example 37, (E)-4-(1,3-bis(propyl)-1,2,3,6-tetrahydro-2,6-dioxo-9H-purin-8-yl)cinnamic Acid Nonaethylene Glycol Methyl Ether Ester], the IC50 is 98 ± 33 nM. Turning to `COCCOCCOCCOCCOCCOCCOCCOCCOCCOC(=O)/C=C/c1ccc(-c2nc3c(c(=O)[nH]c(=O)n3CC3CCCCC3)n2C)cc1` [Example 104, (E)-4-[(3-Cyclohexylmethyl)-2,3,6,7-tetrahydro-2,6dioxo-7-methyl-1H-purin-8-yl]cinnamic Acid Nonaethylene Glycol Methyl Ether Ester], the IC50 was 86 ± 54 nM. As for `COCCOCCOCCOCCOCCOCCOCCOCCOCCOC(=O)/C=C/c1cccc(-c2nc3c(=O)n(Cc4ccccc4)c(=O)n(Cc4ccccc4)c3[nH]2)c1` [Example 46, (E)-3-(1,3-bis(benzyl)-1,2,3,6-tetrahydro-2,6-dioxo-9H-purin-8-yl)cinnamic Acid Nonaethylene Glycol Methyl Ether Ester], the IC50 is 890 ± 420 nM. `COCCOCCOCCOCCOCCOCCOCCOCCOCCOC(=O)/C=C/c1ccc(-c2nc3c(=O)n(CC4CCC4)c(=O)n(CC4CCC4)c3[nH]2)cc1` [Example 61, (E)-4-(1,3-bis(cyclobutylmethyl)-1,2,3,6-tetrahydro-2,6-dioxo-9H-purin-8-yl)cinnamic Acid Nonaethylene Glycol Methyl Ether Ester]: the IC50 was 11 ± 4 nM. For `COCCOCCOCCOCCOCCOCCOCCOCCOCCOC(=O)/C=C/c1ccc(-c2nc3c(=O)n(C)c(=O)n(C)c3[nH]2)cc1` [Example 47, (E)-4-(1,3-bis(methyl)-1,2,3,6-tetrahydro-2,6-dioxo-9H-purin-8-yl)cinnamic Acid Nonaethylene Glycol Methyl Ether Ester], the IC50 was 710 ± 410 nM. With `COCCOCCOCCOCCOCCOCCOCCOCCOCCNC(=O)/C=C/c1ccc(-c2nc3c(=O)n(Cc4ccccc4)c(=O)n(Cc4ccccc4)c3[nH]2)cc1` [Example 70, (E)-4-[1,3-bis(benzyl)-1,2,3,6-tetrahydro-2,6-dioxo-9H-purin-8-y]cinnamic Acid Nonaethylene Glycol Methyl Ether Amide], the IC50 is above 1000 nM. Still for that read-out and setting: the same measure for `COCCOCCOCCOCCOCCOCCOCCOCCOCCNC(=O)/C=C/c1ccc(-c2nc3c(=O)n(CC4CCCCC4)c(=O)n(CC4CCCCC4)c3[nH]2)cc1` [Example 69, (E)-4-(1,3-Bis(cyclohexylmethyl)-1,2,3,6-tetrahydro-2,6-dioxo-9H-purin-8-yl)cinnamic Acid Nonaethylene Glycol Methyl Ether Amide]: 62 ± 27 nM.

The assay is the same for the next values; noted with them: inhibition of cytokine-stimulated adhesion minus basal adhesion; calcein-AM labelled leukocytes on HUVEC monolayers; Hydrochloride.
Take `COCCOCCOCCOCCOCCOCCOCCNCc1ccc(-c2nc3c(=O)n(CC4CCCCC4)c(=O)n(CC4CCCCC4)c3[nH]2)cc1` [Example 107, 4-[1,3-Bis(cyclohexylmethyl)-1,2,3,6-tetrahydro-2,6-dioxo-9H-purin-8-yl]benzylamine N-Heptaethylene Glycol Methyl Ether Hydrochloride]: the IC50 is 39 ± 19 nM.
